# Key:
# [1] = test system: polyclonally activated CD4 T cells (TCM) killed by CD8 T cells
# From the text: An in vitro model to assess the cytolytic potential of human polyclonally activated CD8 T cells was developed. This model relied on the concept of a mix-lymphocyte reaction (MLR) in which CD8 T cells recognize CD4 T cells from a different donor as foreign and induced their killing (FIG. 11A). In this model, polyclonally activated CD8 T cells were co-cultured with polyclonally activated CD4 T cells from a different donor at an effector:target ratio (E:T) of 1:1. Cell death in both CD4 and CD8 subsets was measured at different time points using a fixable viability dye.
# To test this hypothesis, polyclonally activated CD8 T cells were co-cultured with polyclonally activated CD4 T cells from a different donor to resemble a mixed-lymphocyte reaction (MLR) at an effector:target ratio (E:T) 1:1 (FIG. 15A). CD4 T cells were activated in conditions that generate central memory CD4 T cells (TCM) cells. CD4 TCM are more resistant to apoptosis than other subsets of CD4 T cells. Cell death in both CD4 and CD8 subsets was measured at 72 hours using a fixable viability dye. Specifically, polyclonally activated CD4 T cells and CD8 T cells were co-cultured and cell death was measured at 72 hours. […] Using this assay, it was tested whether HODHBt increased the cytolytic capacity of CD8 T cells in two experimental set ups.
# STAT5 = target: T1, STAT5 (Homo sapiens, UniProt P42229); assay: Cellular thermal shift assay (CETSA) in 293FT-STAT5A cell lysates; type: binding
# T1 construct: expressed in transfected cells; host or cells: 293FT HEK cells expressing STAT5A (293FT-STAT5A)
# T1 sequence (P42229 1-794): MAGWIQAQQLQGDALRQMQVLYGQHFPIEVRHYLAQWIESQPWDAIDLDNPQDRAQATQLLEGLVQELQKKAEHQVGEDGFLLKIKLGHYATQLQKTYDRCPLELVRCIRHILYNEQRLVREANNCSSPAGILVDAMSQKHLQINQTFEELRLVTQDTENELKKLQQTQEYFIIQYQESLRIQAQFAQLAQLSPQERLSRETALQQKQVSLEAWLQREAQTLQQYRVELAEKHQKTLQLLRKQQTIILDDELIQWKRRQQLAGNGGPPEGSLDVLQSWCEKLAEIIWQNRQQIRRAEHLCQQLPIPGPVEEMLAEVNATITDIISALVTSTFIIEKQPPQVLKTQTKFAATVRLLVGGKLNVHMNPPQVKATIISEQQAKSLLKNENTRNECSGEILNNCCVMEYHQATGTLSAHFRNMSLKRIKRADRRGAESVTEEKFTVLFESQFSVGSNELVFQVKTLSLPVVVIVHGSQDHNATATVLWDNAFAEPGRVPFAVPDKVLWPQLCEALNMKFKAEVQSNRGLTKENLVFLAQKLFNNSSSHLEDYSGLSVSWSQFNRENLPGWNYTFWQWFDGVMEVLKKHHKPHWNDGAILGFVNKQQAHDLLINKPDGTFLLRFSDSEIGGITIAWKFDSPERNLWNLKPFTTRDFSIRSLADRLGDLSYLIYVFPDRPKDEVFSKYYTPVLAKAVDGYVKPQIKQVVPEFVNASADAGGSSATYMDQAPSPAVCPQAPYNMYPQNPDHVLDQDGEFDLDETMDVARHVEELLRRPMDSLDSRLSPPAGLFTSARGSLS
# From the text: To evaluate whether HODHBt and its analogs were directly binding to STAT5, a recently developed assay, cellular thermal shift assay (CETSA), was used. CETSA is based on the biophysical principle of ligand-induced changes in thermal stability of target proteins. As detailed in Molina & Nordlund, ANNU RE[…]. 2016; 56:141-61, the disclosure of which is hereby incorporated by reference in its entirety, the CETSA assay has been extensively used to identify drug targets using lysates, cells and tissues (FIG. 7A). After heating at different temperatures, the soluble fractions are analyzed for changes in the levels of the target protein (FIG. 7B). Binding of the compound can change the temperature at which the protein is denaturalized (FIG. 7C) leading to a change in the thermal melting curve (FIG. 7D).
# First, it was addressed whether HODHBt induced a thermal shift of STAT5 using cell lysates from 293FT-STAT5A. In this assay, high drug concentrations were used to perform CETSA in cell lysates (10,000-20,000 times the IC50). […] Briefly, cell lysates were incubated with either DMSO or HODHBt for 30 minutes at 25° C. After incubation, lysates were heated from 40° C. to 75° C. in 5 degrees intervals and the insoluble fractions were eliminated by centrifugation. […]
# STAT5, STAT1, STAT3 = assay: Western blot of phosphorylated STATs in NK cells; type: cell-based, human
# Experimental: Next, NK cells were cultured with IL-15 in the presence or absence of HODHBt and levels of phosphorylated STATs were measured by Western blot.
# In general, samples are prepared and loaded on to a gel and during the electrophoresis the negatively charged proteins move toward the positively charged anode. In order to further analyze the proteins, they are transferred onto a membrane in a procedure called blotting. After the transfer, the membrane is blocked in order to prevent unwanted membrane-protein interaction in the following steps. To visualize the protein of interest the membrane is commonly first probed using a primary protein-specific antibody followed by a labeled secondary antibody used for detection. An image is taken of the membrane and the result is analyzed.
smiles,measurement,setting,value
O=c1c2ccccc2nnn1O [HODHBt],killing capacity of CD8 T cells expanded in the presence of compound,[1]; CD8 T cells expanded in the presence of HODHBt,higher killing capacity
same,killing capacity of CD8 T cells over TCM cells,"[1]; HODHBt added during the MLR reaction, 72 hours",increased the killing capacity of CD8 T cells over TCM cells in a dose dependent manner
same,CD8 T cell death in co-culture,[1]; human,no increase in cell death in CD8 T cells in any of the experimental conditions
same,toxicity on CD8 T cells,"[1]; human, 72 h",no overt toxicity on CD8 T cells
same,CD4 T cell death in co-culture with CD8 T cells,"[1]; time course, fixable viability dye",detected only in the co-culture treated with HODHBt at 72 hours and 96 hours
same,high molecular band generated (size of STAT5 dimer),"STAT5; lysates incubated with HODHBt, Western blot",approximately 188 kDa
same,thermal melting curve of STAT5,"STAT5; lysates, 5 mM, 30 minutes at 25° C, heated 40-75° C","drastically changed the thermal melting curve of STAT5, promoting its degradation"
same,phosphorylation of STAT1 in NK cells,"STAT5, STAT1, STAT3; HODHBt alone",increased the phosphorylation levels of STAT1
same,phosphorylation of STAT5 in NK cells,"STAT5, STAT1, STAT3; after IL-15 treatment",increased the levels of phosphorylation of STAT5 after IL-15 treatment
same,phosphorylation of STAT1 and STAT3 in NK cells,"STAT5, STAT1, STAT3; with IL-15, vs IL-15",enhanced the levels of phosphorylation of STAT1 and STAT3 induced by IL-15
